According to ChEMBL document CHEMBL3045434, “Synthesis, characterization, and biological evaluation of novel thiazole and pyrazole derivatives of quinoline-4-carboxylic acid as potential antimicrobial agents” (2013):
Values after ≈ are worked out from the molar mass of the structure shown.

Key:
Assay type in all cases: functional
Escherichia coli [1] = experiment: Antibacterial activity against Escherichia coli MTCC 739 by disc diffusion method
Pseudomonas aeruginosa [2] = experiment: Antibacterial activity against Pseudomonas aeruginosa ATCC 25615 by two-fold serial dilution method
Bacillus subtilis [3] = experiment: Antibacterial activity against Bacillus subtilis ATCC 6633 by two-fold serial dilution method
Bacillus subtilis [4] = experiment: Antibacterial activity against Bacillus subtilis ATCC 6633 by disk diffusion method
Staphylococcus aureus [5] = experiment: Antibacterial activity against Staphylococcus aureus ATCC 9144 by two-fold serial dilution method
Staphylococcus aureus [6] = experiment: Antibacterial activity against Staphylococcus aureus ATCC 9144 by disk diffusion method
Aspergillus fumigatus [7] = experiment: Antifungal activity against Aspergillus fumigatus MTCC 343 by disk diffusion method
Aspergillus niger [8] = experiment: Antifungal activity against Aspergillus niger MTCC 872 by two-fold serial dilution method
Candida albicans [9] = experiment: Antifungal activity against Candida albicans ATCC 24433 by two-fold serial dilution method
Aspergillus niger [10] = experiment: Antifungal activity against Aspergillus niger MTCC 872 by disc diffusion method
Aspergillus fumigatus [11] = experiment: Antifungal activity against Aspergillus fumigatus MTCC 343 by two-fold serial dilution method
Escherichia coli [12] = experiment: Antibacterial activity against Escherichia coli MTCC 739 by two-fold serial dilution method
Pseudomonas aeruginosa [13] = experiment: Antibacterial activity against Pseudomonas aeruginosa ATCC 25615 by disc diffusion method
Candida albicans [14] = experiment: Antifungal activity against Candida albicans ATCC 24433 by disk diffusion method

| Molecule | diameter of the inhibition zone (DIZ) (Escherichia coli [1]) [mm] | MIC (Pseudomonas aeruginosa [2]) [µg/mL] | MIC (Bacillus subtilis [3]) [µg/mL] | diameter of the inhibition zone (DIZ) (Bacillus subtilis [4]) [mm] | MIC (Staphylococcus aureus [5]) [µg/mL] | diameter of the inhibition zone (DIZ) (Staphylococcus aureus [6]) [mm] | diameter of the inhibition zone (DIZ) (Aspergillus fumigatus [7]) [mm] | MIC (Aspergillus niger [8]) [µg/mL] | MIC (Candida albicans [9]) [µg/mL] | diameter of the inhibition zone (DIZ) (Aspergillus niger [10]) [mm] | MIC (Aspergillus fumigatus [11]) [µg/mL] | MIC (Escherichia coli [12]) [µg/mL] | diameter of the inhibition zone (DIZ) (Pseudomonas aeruginosa [13]) [mm] | diameter of the inhibition zone (DIZ) (Candida albicans [14]) [mm] | inhibition zone (IZ) (Escherichia coli [1]) [mm] | inhibition zone (IZ) (Bacillus subtilis [4]) [mm] | inhibition zone (IZ) (Staphylococcus aureus [6]) [mm] | inhibition zone (IZ) (Aspergillus niger [10]) [mm] | inhibition zone (IZ) (Pseudomonas aeruginosa [13]) [mm] |
| --- | --- | --- | --- | --- | --- | --- | --- | --- | --- | --- | --- | --- | --- | --- | --- | --- | --- | --- | --- |
| O=c1[nH]nc2c3c(c(-c4ccccc4)nc4ccccc43)c(-c3ccccc3)c(-c3ccccc3)n12 | 21 | 50 (≈ 108 µM) | > 100 | 8 | > 100 | 8 | 12 | > 100 | > 100 | 6 | 25 (≈ 53.8 µM) | 25 (≈ 53.8 µM) | 12 | 6 |  |  |  |  |  |
| GENTAMICIN |  |  |  |  | 6.25 |  |  |  |  |  |  | 25 |  |  | 20 | 22 | 22 | 18 | 23 |
| Nc1ccc(C2=N/C(=N/N=C(/C[n+]3c(-c4ccc(Cl)cc4)cc(C(=O)O)c4ccccc43)c3ccccc3)SC2)cc1.[I-] | 7 | > 100 | > 100 | 7 | 3.12 | 34 | 9 | > 100 | > 100 | 6 | > 100 | > 100 | 8 | 7 |  |  |  |  |  |
| Cc1ccc(-c2nc3ccccc3c3c2c(-c2ccccc2)c(-c2ccccc2)n2c(=O)[nH]nc32)cc1 | 6 | > 100 | 50 (≈ 104 µM) | 18 | 50 (≈ 104 µM) | 11 | 9 | > 100 | 50 (≈ 104 µM) | 6 | > 100 | > 100 | 9 | 14 |  |  |  |  |  |
| O=C(O)c1cc(-c2ccc(Cl)cc2)[n+](C/C(=N/N=C2/N=C(c3ccccc3)CS2)c2ccccc2)c2ccccc12.[I-] | 6 | > 100 | > 100 | 6 | 25 | 15 | 6 | > 100 | 12.5 | 6 | > 100 | > 100 | 6 | 19 |  |  |  |  |  |
| O=c1[nH]nc2c3c(c(-c4ccc(Cl)cc4)nc4ccccc43)c(-c3ccccc3)c(-c3ccccc3)n12 | 6 | > 100 | > 100 | 11 | > 100 | 9 | 6 | > 100 | 12.5 (≈ 25.1 µM) | 8 | > 100 | > 100 | 6 | 24 |  |  |  |  |  |
| OC(Cn1cncn1)(Cn1cncn1)c1ccc(F)cc1F [FLUCONAZOLE] |  |  |  |  |  |  |  |  | 6.25 (≈ 20.4 µM) |  |  |  |  | 21 |  |  |  |  |  |
| O=C(O)c1cc(-c2ccccc2)[n+](C/C(=N/N=C2/N=C(c3ccccc3)CS2)c2ccccc2)c2ccccc12.[I-] | 9 | > 100 | > 100 | 10 | 25 | 18 | 12 | 12.5 | > 50 | 14 | 25 | > 100 | 9 | 10 |  |  |  |  |  |
| Cc1ccc(-c2cc(C(=O)O)c3ccccc3[n+]2C/C(=N/N=C2/N=C(c3ccccc3)CS2)c2ccccc2)cc1.[I-] | 11 | > 100 | > 100 | 9 | 25 | 14 | 8 | > 100 | 25 | 7 | > 100 | > 100 | 8 | 17 |  |  |  |  |  |
| S=c1[nH]nc2c3c(c(-c4ccc(Cl)cc4)nc4ccccc43)c(-c3ccccc3)c(-c3ccccc3)n12 | 7 | 50 (≈ 97.1 µM) | > 100 | 8 | 12.5 (≈ 24.3 µM) | 20 | 6 | > 100 | 25 (≈ 48.5 µM) | 6 | > 100 | > 100 | 13 | 18 |  |  |  |  |  |
| Cc1ccc(-c2nc3ccccc3c3c2c(-c2ccccc2)c(-c2ccccc2)n2c(=S)[nH]nc32)cc1 | 6 | > 100 | 25 (≈ 50.5 µM) | 19 | > 100 | 6 | 6 | > 100 | > 100 | 7 | > 100 | > 100 | 6 | 6 |  |  |  |  |  |
| Nc1ccc(C2=N/C(=N/N=C(/C[n+]3c(-c4ccccc4)cc(C(=O)O)c4ccccc43)c3ccccc3)SC2)cc1.[I-] | 8 | > 100 | > 100 | 9 | 6.25 | 24 | 6 | > 100 | 3.12 | 7 | > 100 | > 100 | 9 | 36 |  |  |  |  |  |
| S=c1[nH]nc2c3c(c(-c4ccccc4)nc4ccccc43)c(-c3ccccc3)c(-c3ccccc3)n12 | 18 | > 100 | 12.5 (≈ 26 µM) | 21 | > 100 | 8 | 7 | > 100 | > 100 | 6 | > 100 | 50 (≈ 104 µM) | 8 | 8 |  |  |  |  |  |
| Cc1ccc(-c2cc(C(=O)O)c3ccccc3[n+]2C/C(=N/N=C2/N=C(c3ccc(N)cc3)CS2)c2ccccc2)cc1.[I-] | 6 | > 100 | > 100 | 6 | 3.12 | 40 | 10 | > 100 | 3.12 | 8 | > 50 | > 100 | 6 | 40 |  |  |  |  |  |
